Holding throughout (test): NCI tumour cell line growth inhibition, 48 h
Assay [1] has as its system A498 renal.
The subject of assay [2] is A549 NSCLC.
Assay [3] has as its system HCT-15 colon.
The test system of assay [4] is HL-60(TB) leukemia.
For assay [5], the system named is NCI-H522 lung.
Assay [6] deals with RPMI-8226 leukemia.
The subject of assay [7] is SF-295 CNS.
Assay [8] relates to SF-539 CNS.
In assay [9] the test system is SK-MEL-2 melanoma.
Assay [10] deals with SNB-75 CNS.

“And” between values parts separate entries of the source, which are not always exact repeats. Equal entries are not always repeated.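 Exposure lasted 48 hours, with cells grown in 96-well plates and compounds tested at five concentrations. At the GI50, growth is halved. TGI is the concentration that stops growth completely.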 A value given as a limit tells only on which side of the number the result lay.

Consider 13 compounds from PubChem BioAssay (NCI).

Consider `CNC(=O)c1cc(Oc2ccc(NC(=O)Nc3ccc(Cl)c(C(F)(F)F)c3)cc2)ccn1`, for which the GI50 in assay [1] is 3100 nM and 2270 nM and 2150 nM; in [2] it was 3030 nM and 2570 nM and 2920 nM; in [3], 2760 nM and 3180 nM and 2650 nM; in [4], 703 nM and 1530 nM; in assay [5] it was 1790 nM and 2140 nM and 2060 nM; in [6], 1500 nM and 2370 nM and 1740 nM. Further, the GI50 in assay [7] is 2340 nM and 1830 nM and 1690 nM; in [8] it was 1970 nM and 2320 nM and 1620 nM; in [9] it was 1160 nM and 1310 nM and 1770 nM; in assay [10], 1860 nM and 2650 nM and 2730 nM. Besides, the TGI is 9.48 µM and 6.38 µM and 6.52 µM in assay [1]; > 10 µM and 11.5 µM and 13.6 µM in assay [2]; > 10 µM and 12.3 µM and 9.84 µM in [3]; 3.8 µM and 14.1 µM in [4]; 5.79 µM and 5.64 µM and 6.29 µM in assay [5]; 6.25 µM and 6.93 µM and 6.04 µM in assay [6]. The TGI in assay [7] was > 10 µM and 5.33 µM and 4.56 µM; in assay [8], > 10 µM and 9.07 µM and 4.82 µM; in [9], 3.57 µM and 2.93 µM and 6.22 µM; in assay [10], > 10 µM and 8.98 µM and 8.78 µM.

On to `CN(N=O)N1C(=O)SCC(c2ccccc2)(c2ccccc2)C1=O`, for which the TGI in [1] is greater than 100 µM; in [2] it was greater than 100 µM; in assay [3] it was greater than 100 µM; in assay [4], greater than 100 µM; in assay [5], 91.1 µM; in [6], 67.6 µM. The TGI in assay [7] is greater than 100 µM; in assay [8], 65.5 µM; in [9], 54.5 µM; in assay [10], 82.2 µM.

Consider `S=C1NC(c2ccccc2)NC(c2ccccc2)S1` (stereo not drawn), for which the TGI in [1], in [2], in [3], in assay [4], in [5] and in assay [6] was greater than 100 µM throughout. Also, the TGI in [7], in assay [8], in assay [9] and in assay [10] was greater than 100 µM each time.

On to `COc1ccc(C2CC(=O)Nc3c2c(C)nn3-c2nc3ccccc3[nH]2)cc1OC` (stereo not drawn), for which the GI50 was 2010 nM in assay [1]; 3820 nM in assay [2]; 4760 nM in assay [3]; 3290 nM in [4]; 3830 nM in [5]; 3080 nM in assay [6]. In addition, the GI50 in assay [7] was 1770 nM; in assay [8] it was 2850 nM; in assay [9], 4850 nM; in [10] it was 3460 nM. The TGI in [1] was 13.4 µM; in [2], 17.8 µM; in [3] it was greater than 58.9 µM; in assay [4], 12.6 µM; in assay [5], 25.6 µM; in assay [6], 8.68 µM. Further, the TGI in [7] is 6.91 µM; in assay [8], 9.48 µM; in assay [9], 21.9 µM; in assay [10], greater than 56.1 µM.

Consider `Nc1[nH]c(=S)[nH]c(=O)c1N=Nc1c(Br)cc(S(N)(=O)=O)cc1Br`, for which the TGI in assay [1], in assay [2], in [3], in assay [4], in assay [5] and in [6] was greater than 100 µM in each case. In addition, the TGI in assay [7], in assay [8], in assay [9] and in assay [10] was greater than 100 µM in each case.

As for `c1ccc2c(c1)CCCc1nnc3nc4ccccc4n3c1-2`, the GI50 in assay [1] is 16600 nM; in assay [2], 3660 nM; in assay [3], 3270 nM; in [4] it was 2490 nM; in [5], 12700 nM; in [6] it was 2960 nM. For the same compound, the GI50 in assay [7] is 9010 nM; in assay [8] it was 3570 nM; in assay [9] it was 28300 nM; in [10] it was 23000 nM. The TGI in assay [1] is greater than 100 µM; in assay [2] it was greater than 100 µM; in assay [3], greater than 100 µM; in assay [4], 78.2 µM; in assay [5], 33 µM; in [6], 29.1 µM. For the same compound, the TGI in [7] is greater than 100 µM; in [8], 18.4 µM; in assay [9] it was greater than 100 µM; in assay [10], greater than 100 µM.

On to `Cc1ccccc1N=C(c1ccccc1)C1C(=O)c2ccccc2C1=O`, for which the GI50 was 24400 nM in assay [1]; 12300 nM in [2]; 11300 nM in assay [3]; 9490 nM in [4]; 1990 nM in assay [5]; 4270 nM in [6]. In addition, the GI50 is 13800 nM in assay [7], 12100 nM in assay [8], 3320 nM in assay [9] and 23400 nM in assay [10]. Moreover, the TGI was greater than 100 µM in [1]; greater than 100 µM in [2]; 73 µM in assay [3]; 32.6 µM in [4]; 17.7 µM in [5]; 27 µM in assay [6]. The TGI in [7] is 36.5 µM; in [8], greater than 100 µM; in [9], 59.8 µM; in assay [10], greater than 100 µM.

Consider `C=C1C(=O)O[C@H]2[C@H]1CC/C(COC(=O)NCCc1ccc(Br)cc1)=C\CC[C@@]1(C)O[C@@H]21`, for which the GI50 in [1] was 2070 nM; in assay [2], 2590 nM; in assay [3], 1010 nM; in assay [4], 1060 nM; in assay [5], 1160 nM; in assay [6] it was 624 nM. The GI50 in [7] was 3810 nM; in [8], 1460 nM; in [9] it was 1580 nM; in assay [10], 1200 nM. In addition, the TGI in assay [1] was 4.21 µM; in [2] it was 6.17 µM; in assay [3], 2.33 µM; in assay [4] it was 3.97 µM; in [5], 2.73 µM; in assay [6], 2.89 µM. The TGI came to 15.5 µM in [7], 2.88 µM in assay [8], 3.17 µM in [9] and 2.45 µM in [10].

On to `CN1c2cccc[c]2[Sn]([CH3])([CH3])[c]2ccccc21`, for which the GI50 in assay [1] is 101 nM; in assay [2], less than 13.2 nM; in assay [3], less than 12.5 nM; in assay [4], less than 10 nM; in [5], 10.2 nM; in assay [6], less than 11.9 nM. In addition, the GI50 in assay [7] was less than 16.5 nM; in assay [8], less than 11 nM; in assay [9] it was less than 20.9 nM; in assay [10], less than 14.2 nM. Further, the TGI in [1] turned out to be 0.255 µM; in [2], 0.0932 µM; in [3], 0.116 µM; in assay [4], 0.0569 µM; in [5], 0.0262 µM; in assay [6] it was 0.0316 µM. In addition, the TGI in assay [7] was less than 0.034 µM; in assay [8] it was 0.0473 µM; in assay [9], 0.18 µM; in assay [10], 0.192 µM.

`O=C1C2=C(c3ccccc31)C(c1ccc([N+](=O)[O-])cc1)NC(=S)N2` (stereo not drawn): the TGI in [1], in [2], in [3], in [4], in [5] and in assay [6] was greater than 100 µM throughout. Also, the TGI in assay [7] is greater than 100 µM; in [8] it was greater than 100 µM; in assay [9] it was greater than 100 µM; in [10] it was 98.6 µM.

For the compound `Clc1cc2ns[s+]c2cc1Cl`, the TGI was greater than 100 µM in assay [1]; greater than 100 µM in assay [2]; greater than 100 µM in assay [3]; greater than 87.2 µM in assay [4]; greater than 80.5 µM in assay [5]; greater than 100 µM in assay [6]. For the same compound, the TGI in [7] is greater than 100 µM; in assay [8], greater than 100 µM; in assay [9] it was greater than 100 µM; in [10] it was greater than 64.2 µM.

On to `COc1cccc(/C=C/C(=O)c2cc3c(N)c(C(=O)Nc4ccccc4)sc3nc2C)c1`, for which the GI50 was 1180 nM in assay [1]; 1510 nM in assay [2]; 1160 nM in assay [3]; 1020 nM in [4]; 1060 nM in [5]; 1180 nM in assay [6]. Moreover, the GI50 in assay [7] was 6270 nM; in assay [8], 957 nM; in assay [9], 1750 nM; in assay [10], 889 nM. In addition, the TGI came to 4.41 µM in assay [1]; 6.23 µM in [2]; 3.37 µM in assay [3]; 2.72 µM in assay [4]; 3.08 µM in assay [5]; 2.54 µM in [6]. In addition, the TGI is greater than 50 µM in assay [7], 1.84 µM in assay [8], 8.63 µM in [9] and greater than 50 µM in [10].

Regarding `CCN1C(=O)N(CC)C2C1NN=c1s/c(=C\c3ccc(Br)cc3)c(=O)n12` (stereo not drawn), the GI50 is 83.3 nM in [1]; 313 nM in assay [2]; 59.8 nM in [3]; 107 nM in assay [4]; 55.8 nM in [5]; 269 nM in assay [6]. Moreover, the GI50 in [7] is 73.8 nM; in assay [8], 75.9 nM; in [9], 4910 nM; in [10], 80.8 nM. The TGI in assay [1] was greater than 100 µM; in [2] it was greater than 100 µM; in [3] it was greater than 100 µM; in assay [4], 1.43 µM; in assay [7], greater than 100 µM; in [8] it was 5.87 µM. The TGI in assay [9] and in assay [10] was greater than 100 µM throughout.
